From patent US8940756B2, “Dihydronaphthyridines and related compounds useful as kinase inhibitors for the treatment of proliferative diseases” (Deciphera Pharmaceuticals, Inc., priority 2012, dated 2015)

Legend:
[1] = molecular target: T1, c-KIT kinase (Seq ID no. 1) (Homo sapiens, UniProt P10721); assay: c-KIT Kinase Assay (pyruvate kinase/lactate dehydrogenase coupled); assay type: biochemical; conditions: enzymatic assay, ATP 200 μM; read-out: KIT (wt)
T1 construct: GST (N); TEV cleavage site (N); purchased deCODE Biostructures

[2] = molecular target: T2, c-KIT V654A kinase (Seq ID no. 2) (Homo sapiens, UniProt P10721, V654A); assay: c-KIT V654A Kinase Assay; assay type: biochemical; conditions: enzymatic assay, ATP 200 μM
T2 construct: V654A c-Kit (residues T544-V976 with N-terminal GST fusion, 47 nM); purchased deCODE Biostructures
Method: In this assay, the oxidation of NADH (measured by decrease in absorbance at 340 nm) was continuously monitored spectrophotometrically. […] The inhibition reaction was started by mixing serial diluted test compound with the above reaction mixture. The absorption at 340 nm was monitored continuously for 6 hours at 30° C. on Synergy 2 plate reader (BioTech).
The protein construct was prepared by deCODE Biostructures using procedures known in the art. The construct contains residues T544-V976 of cKit, an N-terminal tag, a GST-fusion sequence and a TEV cleavage site. This construct is identical to Seq ID no.

[3] = molecular target: T3, c-KIT D816H kinase (Seq ID no. 3) (Homo sapiens, UniProt P10721, D816H); assay: c-KIT D816H Kinase Assay; assay type: biochemical; conditions: enzymatic assay, ATP 200 μM
T3 construct: GST (N); TEV cleavage site (N); purchased deCODE Biostructures

[4] = molecular target: T4, c-KIT D816V kinase (Seq ID no. 4) (Homo sapiens, UniProt P10721, D816V); assay: c-KIT D816V kinase Assay; assay type: biochemical; conditions: enzymatic assay, ATP 200 uM
T4 construct: D816V c-KIT (residues T544-V976 with N-terminal GST fusion, 16 nM); purchased deCODE Biostructures

[5] = molecular target: T5, c-KIT T670I kinase (Seq ID no. 6) (Homo sapiens, UniProt P10721, T670I); assay: c-KIT T670I Kinase Assay; assay type: biochemical; conditions: enzymatic assay, ATP 200 uM
T5 construct: GST (N); TEV cleavage site (N); purchased deCODE Biostructures

[6] = molecular target: Phospho-KIT (Tyr719) in GIST48 cells (Homo sapiens, UniProt P10721); assay: GIST48 KIT Western Blot; assay type: cell-based; conditions: 4 hours, read-out: pKIT suppression by western blot analysi GIST48
Sequence of Phospho-KIT (Tyr719) in GIST48 cells (P10721 whole entry V560D/D820A, form open): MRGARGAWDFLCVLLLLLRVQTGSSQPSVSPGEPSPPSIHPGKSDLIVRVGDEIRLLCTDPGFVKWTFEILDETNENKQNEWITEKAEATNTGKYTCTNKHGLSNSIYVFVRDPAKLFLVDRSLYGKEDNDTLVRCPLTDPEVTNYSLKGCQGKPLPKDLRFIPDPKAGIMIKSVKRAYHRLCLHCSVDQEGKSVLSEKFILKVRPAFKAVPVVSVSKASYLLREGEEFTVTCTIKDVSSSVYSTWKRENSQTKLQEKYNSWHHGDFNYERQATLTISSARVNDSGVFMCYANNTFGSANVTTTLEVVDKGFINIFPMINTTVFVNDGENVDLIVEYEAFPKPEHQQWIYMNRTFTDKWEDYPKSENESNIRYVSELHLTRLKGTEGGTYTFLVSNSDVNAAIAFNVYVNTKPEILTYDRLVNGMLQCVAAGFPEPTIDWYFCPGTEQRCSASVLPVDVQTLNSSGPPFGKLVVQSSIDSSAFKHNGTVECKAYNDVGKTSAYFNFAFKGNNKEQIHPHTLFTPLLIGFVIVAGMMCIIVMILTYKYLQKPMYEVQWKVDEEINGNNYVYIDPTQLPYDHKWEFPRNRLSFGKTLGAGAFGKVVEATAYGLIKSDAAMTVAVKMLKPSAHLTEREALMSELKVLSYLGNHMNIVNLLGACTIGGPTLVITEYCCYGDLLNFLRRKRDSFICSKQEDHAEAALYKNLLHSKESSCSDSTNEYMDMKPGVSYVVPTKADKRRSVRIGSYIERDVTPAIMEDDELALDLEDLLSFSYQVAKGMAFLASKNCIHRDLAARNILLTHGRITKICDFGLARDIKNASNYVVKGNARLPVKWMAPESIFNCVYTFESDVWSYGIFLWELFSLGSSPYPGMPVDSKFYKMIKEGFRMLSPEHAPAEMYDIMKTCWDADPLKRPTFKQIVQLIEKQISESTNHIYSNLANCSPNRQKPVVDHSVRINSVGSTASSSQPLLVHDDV

T2 sequence (P10721 544-976 V654A): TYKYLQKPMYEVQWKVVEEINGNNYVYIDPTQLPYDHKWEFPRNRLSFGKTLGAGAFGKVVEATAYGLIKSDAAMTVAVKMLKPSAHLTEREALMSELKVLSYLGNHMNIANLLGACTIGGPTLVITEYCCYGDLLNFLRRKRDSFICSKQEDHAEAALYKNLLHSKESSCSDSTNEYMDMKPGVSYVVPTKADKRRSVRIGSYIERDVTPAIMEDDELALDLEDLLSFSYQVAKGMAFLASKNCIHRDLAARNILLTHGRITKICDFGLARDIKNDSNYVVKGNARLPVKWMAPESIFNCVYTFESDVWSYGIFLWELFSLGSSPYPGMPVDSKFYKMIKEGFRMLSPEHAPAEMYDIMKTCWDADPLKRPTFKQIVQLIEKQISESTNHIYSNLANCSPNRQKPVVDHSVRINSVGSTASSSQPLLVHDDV
T1 sequence (P10721 with tags, fused parts or gaps): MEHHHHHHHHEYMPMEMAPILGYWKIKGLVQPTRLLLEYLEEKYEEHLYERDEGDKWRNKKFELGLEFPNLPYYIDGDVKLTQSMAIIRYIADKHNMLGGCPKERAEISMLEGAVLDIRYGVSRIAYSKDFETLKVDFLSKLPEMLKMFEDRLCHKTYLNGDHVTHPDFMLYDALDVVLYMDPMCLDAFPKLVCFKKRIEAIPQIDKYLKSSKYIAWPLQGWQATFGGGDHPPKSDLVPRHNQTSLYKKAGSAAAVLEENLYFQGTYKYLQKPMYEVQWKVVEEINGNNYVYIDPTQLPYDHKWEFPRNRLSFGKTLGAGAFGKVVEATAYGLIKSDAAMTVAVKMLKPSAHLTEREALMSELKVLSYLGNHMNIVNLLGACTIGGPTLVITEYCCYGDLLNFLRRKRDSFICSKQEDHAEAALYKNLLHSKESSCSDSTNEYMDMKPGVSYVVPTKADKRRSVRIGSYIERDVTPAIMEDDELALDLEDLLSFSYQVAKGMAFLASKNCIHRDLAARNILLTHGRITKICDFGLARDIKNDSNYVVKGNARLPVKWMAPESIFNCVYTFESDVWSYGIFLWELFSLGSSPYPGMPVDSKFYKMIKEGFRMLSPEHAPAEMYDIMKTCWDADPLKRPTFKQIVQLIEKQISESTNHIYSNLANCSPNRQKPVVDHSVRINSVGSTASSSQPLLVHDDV
T5 sequence (P10721 544-976 T670I): as the sequence (P10721 544-976 V654A) above, with A111V, T127I counted along it
T3 sequence (P10721 544-976 D816H): as the sequence (P10721 544-976 V654A) above, with A111V, D273H counted along it
T4 sequence (P10721 544-976 D816V): as the sequence (P10721 544-976 V654A) above, with A111V, D273V counted along it

CCn1c(=O)c(-c2cc(NC(=O)Nc3ccccc3)c(F)cc2Cl)cc2cnc(N)cc21 [Example 21, 1-(5-(7-amino-1-ethyl-2-oxo-1,2-dihydro-1,6-naphthyridin-3-yl)-4-chloro-2-fluorophenyl)-3-phenylurea]
IC50 [1]: < 0.01 µM | IC50 [2]: < 0.01 µM | IC50 [3]: < 0.01 µM | IC50 [4]: 0.01 to 0.1 µM | IC50 [5]: < 0.01 µM | IC50 [6]: 0.01 to 0.1 µM

CCn1c(=O)c(-c2cc(NC(=O)Nc3cccc(CN4CCN(C)CC4)c3)c(F)cc2Cl)cc2cnc(NC)cc21 [Example 79, 1-(4-chloro-5-(1-ethyl-7-(methylamino)-2-oxo-1,2-dihydro-1,6-naphthyridin-3-yl)-2-fluorophenyl)-3-(3-((4-methylpiperazin-1-yl)methyl)phenyl)urea]
IC50 [1]: < 0.01 µM | IC50 [2]: 0.1 to 1 µM | IC50 [3]: 0.01 to 0.1 µM | IC50 [4]: 0.1 to 1 µM | IC50 [5]: 0.01 to 0.1 µM | IC50 [6]: 0.01 to 0.1 µM

CCn1c(=O)c(-c2cc(NC(=O)Nc3cc(F)cc(CN4CCN(C)CC4)c3)c(F)cc2Cl)cc2cnc(NC)cc21 [Example 88, 1-(4-chloro-5-(1-ethyl-7-(methylamino)-2-oxo-1,2-dihydro-1,6-naphthyridin-3-yl)-2-fluorophenyl)-3-(3-fluoro-5-((4-methylpiperazin-1-yl)methyl)phenyl)urea]
IC50 [1]: < 0.01 µM | IC50 [2]: 0.01 to 0.1 µM | IC50 [3]: 0.01 to 0.1 µM | IC50 [4]: 0.1 to 1 µM | IC50 [5]: 0.01 to 0.1 µM | IC50 [6]: 0.01 to 0.1 µM
